Assay results reported in BindingDB's records for patent US10870641 (Ribon Therapeutics, 2020).

These compounds were tested against T1, Protein mono-ADP-ribosyltransferase TIPARP (Homo sapiens, UniProt Q7Z3E1) (assay: Enzymatic Assay).
T1 sequence (Q7Z3E1 whole entry): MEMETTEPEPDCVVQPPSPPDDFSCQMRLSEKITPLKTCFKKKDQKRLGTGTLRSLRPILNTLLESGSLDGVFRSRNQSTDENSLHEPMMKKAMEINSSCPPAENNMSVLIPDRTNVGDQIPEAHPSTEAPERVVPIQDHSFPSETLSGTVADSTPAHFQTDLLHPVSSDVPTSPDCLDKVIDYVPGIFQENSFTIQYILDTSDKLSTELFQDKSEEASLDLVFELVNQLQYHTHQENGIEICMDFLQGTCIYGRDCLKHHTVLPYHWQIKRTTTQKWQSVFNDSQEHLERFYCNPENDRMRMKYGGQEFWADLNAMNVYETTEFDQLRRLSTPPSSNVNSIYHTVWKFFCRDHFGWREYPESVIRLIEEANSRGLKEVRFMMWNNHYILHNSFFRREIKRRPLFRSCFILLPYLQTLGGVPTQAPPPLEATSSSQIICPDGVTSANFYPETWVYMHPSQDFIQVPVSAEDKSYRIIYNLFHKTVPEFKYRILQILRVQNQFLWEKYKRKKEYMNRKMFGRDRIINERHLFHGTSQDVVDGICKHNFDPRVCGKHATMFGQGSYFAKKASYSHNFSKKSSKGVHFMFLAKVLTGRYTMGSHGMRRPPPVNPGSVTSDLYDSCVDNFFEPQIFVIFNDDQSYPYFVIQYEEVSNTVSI
Experimental: Displacement of Probe A, a biotinylated probe binding to the TIPARP active site, was measured using a time-resolved fluorescence energy transfer (TR-FRET) assay. 20 nL of a dose response curve of each test compound was spotted in black 384-well polystyrene proxiplates (Perkin Elmer) using a Mosquito (TTP Labtech). Reactions were performed in a 8 μL volume by adding […] of TIPARP and Probe A in assay buffer (20 mM HEPES pH=8, 100 mM NaCl, 0.1% bovine serum albumin, 2 mM DTT and 0.002% Tween20), incubating with test compound at 25° C. for 30 min, then adding 2 μL of ULight-anti 6×His and LANCE Eu-W1024 labeled streptavidin (Perkin Elmer). The final concentrations of TIPARP and Probe A were 6 nM and 2 nM, respectively.

| IC50 | SMILES |
| --- | --- |
| > 1 µM | N#Cc1cnc(N2CCN(C(=O)c3cc(OC[C@@H]4c5ccccc5CN4c4cn[nH]c(=O)c4C(F)(F)F)ccn3)CC2)nc1 [US10870641, Example 64B] |
| < 0.1 µM | N#Cc1ccc(N2CCN(C(=O)/C=C/COC[C@H]3CCCN3c3cn[nH]c(=O)c3C(F)(F)F)CC2)nc1 [US10870641, Example 96B] |
| in the range around 0.55 µM | C[C@@H](CC(=O)N1CCN(c2ccc(C#N)cn2)CC1)OCCOc1cn[nH]c(=O)c1C(F)(F)F [US10870641, Example 538A] |
